Reference: US8389500B2, “Fused heterocyclic compounds as ion channel modulators” (Gilead Sciences, Inc., priority 2008, dated 2013)

These compounds were tested against T1, wild-type human cardiac sodium channel, hNav1.5 (late sodium current) (Homo sapiens, UniProt Q14524) (assay: Late INa screening assay (PatchXpress whole cell patch clamp)). Settings: 1 μM test compound; HEK293 hNav1.5; late INa generated with 10 μM Tefluthrin (some experiments 50 nM ATX II); read-out: Late INa % blk (1 μM test cmpd).
T1 construct: host or cells: HEK293
Assay type: cell-based
Procedure: The late sodium current (Late INa) and peak sodium current (Peak INa) assays are performed on an automated electrophysiology platform, PatchXpress 7000A (MDS Analytical Technologies, Sunnyvale, Calif.), which uses the whole cell patch clamp technique to measure currents through the cell membrane of up to 16 cells at a time. The assay uses an HEK293 (human embryonic kidney) cell line heterologously expressing the wild-type human cardiac sodium channel, hNav1.5, purchased from Millipore (Billerica, Mass.). No beta subunits were coexpressed with the Na channel alpha subunit. Cells are maintained with standard tissue culture procedures and stable channel expression is maintained with 400 μg/ml Geneticin in the culture medium. […] Experiments are carried out at 24-27° C.
For both the Late INa and Peak INa assays, series resistance compensation is set to 50% and whole-cell compensation is performed automatically. […] Currents through open sodium channels are automatically recorded and stored in the DataXpress2 database (MDS Analytical Technologies, Sunnyvale, Calif.). Analysis is performed using DataXpress2 analysis software and data are compiled in Excel.
Compound stocks are routinely made in glass vials to 10 mM in dimethyl sulfoxide (DMSO). In some cases, when compounds are not soluble in DMSO, they are made in 100% ethanol. Stocks are sonicated as necessary. The extracellular solution for screening Late INa is composed of: 140 mM NaCl, 4 mM KCl, 1.8 mM CaCl2, 0.75 mM MgCl2, and 5 mM HEPES with pH adjusted to 7.4 using NaOH. The extracellular solution for screening Peak INa is composed of: 20 mM NaCl, 120 mM N-methyl-D glucamine, 4 mM KCl, 1.8 mM CaCl2, 0.75 mM MgCl2, and 5 mM HEPES with pH adjusted to 7.4 using HCl. The intracellular solution used to perfuse the inside of the cells for both the Late INa and Peak INa assays contains: 120 mM CsF, 20 mM CsCl, 5 mM EGTA, 5 mM HEPES and pH adjusted to 7.4 with CsOH. […] The 0Na extracellular solution used at the end of each experiment for the Late INa and Peak INa assays to measure baseline current contains: 140 mM N-methyl-D-glucamine; 4 mM KCl; 1.8 mM CaCl2; 0.75 mM MgCl2; 5 mM HEPES and pH was adjusted to 7.4 with HCl.
For the Late INa assay, sodium channels are activated every 10 seconds (0.1 Hz) by depolarizing the cell membrane to −20 mV for 250 milliseconds (ms) from a holding potential of −120 mV. In response to a −20 mV voltage step, typical Nav1.5 sodium currents activate rapidly to a peak negative current and then inactivate nearly completely within […].
All compounds are tested to determine their activity in blocking the late sodium current. Late INa current is generated by adding 10 μM Tefluthrin (pyrethroid) to the extracellular solution while recording Na currents For some experiments, 50 nM ATX II (sea anemone toxin), another late Na activator, was used to generate the late component. […] After establishing the whole cell recording configuration, late INa activators are added to each well 4 times over a 16-17 minute period so that the late component of the Na current reaches a stable value. […] Measurements are made at the end of exposure to the third compound addition and values are normalized to the current level when all Na^+ is removed from the extracellular solution after two additions of ONa-ECF. Results are reported as percent block of late INa

T1 sequence (Q14524 whole entry): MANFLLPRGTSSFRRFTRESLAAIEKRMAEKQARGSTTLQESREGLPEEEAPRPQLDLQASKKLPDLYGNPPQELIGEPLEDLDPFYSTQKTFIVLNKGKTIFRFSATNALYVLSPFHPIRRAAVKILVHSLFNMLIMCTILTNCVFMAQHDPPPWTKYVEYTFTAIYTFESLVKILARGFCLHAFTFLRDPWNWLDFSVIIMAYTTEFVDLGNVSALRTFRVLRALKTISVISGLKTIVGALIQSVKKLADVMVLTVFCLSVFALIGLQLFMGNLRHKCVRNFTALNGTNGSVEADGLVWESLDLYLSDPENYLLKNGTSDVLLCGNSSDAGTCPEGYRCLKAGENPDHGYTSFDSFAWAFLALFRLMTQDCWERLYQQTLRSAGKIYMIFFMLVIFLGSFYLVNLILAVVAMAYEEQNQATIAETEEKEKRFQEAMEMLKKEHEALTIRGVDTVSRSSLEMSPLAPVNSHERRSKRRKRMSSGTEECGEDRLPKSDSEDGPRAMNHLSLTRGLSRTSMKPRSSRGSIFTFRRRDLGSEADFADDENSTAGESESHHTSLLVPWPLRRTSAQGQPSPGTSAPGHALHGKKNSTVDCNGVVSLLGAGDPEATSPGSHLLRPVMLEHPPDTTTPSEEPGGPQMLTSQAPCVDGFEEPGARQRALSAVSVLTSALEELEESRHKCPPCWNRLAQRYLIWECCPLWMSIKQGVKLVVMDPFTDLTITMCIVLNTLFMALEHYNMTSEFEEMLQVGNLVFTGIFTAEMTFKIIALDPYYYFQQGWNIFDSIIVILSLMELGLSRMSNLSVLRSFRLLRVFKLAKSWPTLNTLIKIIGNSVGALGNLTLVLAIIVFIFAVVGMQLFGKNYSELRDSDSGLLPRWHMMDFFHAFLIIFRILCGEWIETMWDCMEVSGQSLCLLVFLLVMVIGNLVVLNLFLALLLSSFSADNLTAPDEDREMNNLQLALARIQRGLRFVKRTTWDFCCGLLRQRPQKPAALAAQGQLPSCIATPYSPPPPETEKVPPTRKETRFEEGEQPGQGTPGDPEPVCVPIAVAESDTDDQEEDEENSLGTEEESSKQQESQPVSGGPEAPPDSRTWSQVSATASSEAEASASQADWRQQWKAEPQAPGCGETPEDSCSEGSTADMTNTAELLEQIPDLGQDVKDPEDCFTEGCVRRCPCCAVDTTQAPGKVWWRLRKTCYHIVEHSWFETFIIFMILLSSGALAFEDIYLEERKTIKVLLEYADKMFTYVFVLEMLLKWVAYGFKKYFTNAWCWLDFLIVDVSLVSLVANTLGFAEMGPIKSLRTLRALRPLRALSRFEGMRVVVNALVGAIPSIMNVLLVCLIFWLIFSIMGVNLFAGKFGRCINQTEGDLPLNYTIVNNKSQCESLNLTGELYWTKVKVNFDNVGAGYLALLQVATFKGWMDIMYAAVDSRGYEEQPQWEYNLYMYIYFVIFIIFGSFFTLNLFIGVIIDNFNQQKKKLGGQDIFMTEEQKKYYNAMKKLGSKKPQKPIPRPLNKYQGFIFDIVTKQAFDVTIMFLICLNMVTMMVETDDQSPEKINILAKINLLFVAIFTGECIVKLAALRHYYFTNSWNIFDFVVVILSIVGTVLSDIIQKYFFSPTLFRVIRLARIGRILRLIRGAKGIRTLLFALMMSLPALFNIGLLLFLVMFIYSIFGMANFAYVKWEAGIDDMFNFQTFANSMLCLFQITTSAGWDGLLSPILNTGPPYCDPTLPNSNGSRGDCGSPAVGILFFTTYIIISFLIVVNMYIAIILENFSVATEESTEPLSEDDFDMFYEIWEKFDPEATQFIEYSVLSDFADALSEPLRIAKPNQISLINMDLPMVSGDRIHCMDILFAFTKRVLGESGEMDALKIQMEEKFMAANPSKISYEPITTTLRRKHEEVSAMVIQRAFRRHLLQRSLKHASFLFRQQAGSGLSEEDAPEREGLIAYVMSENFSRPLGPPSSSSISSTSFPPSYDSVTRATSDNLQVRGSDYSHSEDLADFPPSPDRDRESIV

Compound | inhibition at 1 µM [%]
CS(=O)(=O)Nc1ccc(-c2ccc(Cl)cc2)c(Cl)c1 [PT-043, N-(2,4′-dichlorobiphenyl-4-yl)methanesulfonamide] | 17.4

Same assay, conditions: 10 μM test compound; HEK293 hNav1.5; late INa generated with 10 μM Tefluthrin (some experiments 50 nM ATX II); read-out: Late INa % blk (10 μM test cmpd)

Compound | inhibition at 10 µM [%]
CS(=O)(=O)N(CC(=O)O)c1ccc(-c2cccc(OC(F)(F)F)c2)c(F)c1 [PT-103, N-[2-fluoro-3′-(trifluoromethoxy)biphenyl-4-yl]-N-(methylsulfonyl)glycine] | 21.2
Cc1cc(N(Cc2ccc(C(=O)O)cc2)S(C)(=O)=O)ccc1-c1ccc(Oc2ccccc2)c(F)c1 [PT-141, 4-((N-(3′-fluoro-2-methyl-4′-phenoxybiphenyl-4-yl)methylsulfonamido)methyl)benzoic acid] | 23.8
COc1cc(NS(C)(=O)=O)ccc1-c1ccc(C(F)(F)F)cc1 [PT-004, N-[2-methoxy-4′-(trifluoromethyl)biphenyl-4-yl]methanesulfonamide] | 42.8
CS(=O)(=O)Nc1ccc(-c2ccc(C(F)(F)F)cc2)cc1 [PT-006, N-[4′-(trifluoromethyl)biphenyl-4-yl]methanesulfonamide] | 22.7
COc1ccc(NS(C)(=O)=O)cc1-c1cccc(OC(F)(F)F)c1 [PT-109, N-[6-methoxy-3′-(trifluoromethoxy)biphenyl-3-yl]methanesulfonamide] | 35.1
CS(=O)(=O)Nc1ccc(-c2cccc(F)c2)c(Cl)c1 [PT-052, N-(2-chloro-3′-fluorobiphenyl-4-yl)methanesulfonamide] | 50.1
COc1cc(N(CC(=O)O)S(C)(=O)=O)ccc1-c1cccc(OC(F)(F)F)c1 [PT-089, N-[2-methoxy-3′-(trifluoromethoxy)biphenyl-4-yl]-N-(methylsulfonyl)glycine] | -4.1
O=C(NCCO)c1cc(-c2ccc(C(F)(F)F)cc2)ccc1NS(=O)(=O)C1CC1 [PT-162, 4-(cyclopropanesulfonamido)-N-(2-hydroxyethyl)-4′-(trifluoromethyl)biphenyl-3-carboxamide] | -5.3
O=S(=O)(Nc1ccc(-c2ccc(Oc3ccccc3)cc2)c(Cl)c1)C1CC1 [PT-048, N-(2-chloro-4′-phenoxybiphenyl-4-yl)cyclopropanesulfonamide] | 37.9
COCCN(c1ccc(-c2ccc(Cl)c(F)c2)c(Cl)c1)S(C)(=O)=O [PT-077, N-(2,4′-dichloro-3′-fluorobiphenyl-4-yl)-N-(2-methoxyethyl)methanesulfonamide] | 27.2
C#Cc1cc(NS(C)(=O)=O)ccc1-c1ccc(Oc2ccccc2)cc1 [PT-129, N-(2-ethynyl-4′-phenoxybiphenyl-4-yl)methanesulfonamide] | 44.4
CS(=O)(=O)Nc1ccc(-c2cccc([N+](=O)[O-])c2)c(Cl)c1 [PT-054, N-(2-chloro-3′-nitrobiphenyl-4-yl)methanesulfonamide] | 41.3
CC(C)Oc1ccc(-c2ccc(NS(=O)(=O)C3CC3)c(-c3nn[nH]n3)c2)cc1 [PT-157, N-(4′-isopropoxy-3-(2H-tetrazol-5-yl)biphenyl-4-yl)cyclopropanesulfonamide] | 5.8
CS(=O)(=O)Nc1ccc(-c2ccc(Cl)c(F)c2)c(C(F)(F)F)c1 [PT-012, N-[4′-chloro-3′-fluoro-2-(trifluoromethyl)biphenyl-4-yl]methanesulfonamide] | 52
CS(=O)(=O)Nc1ccc(-c2ccc(C(F)(F)F)cc2)c(N)c1 [PT-164, N-(2-amino-4′-(trifluoromethyl)biphenyl-4-yl)methanesulfonamide] | 12.2
Cc1cc(NS(=O)(=O)C2CC2)ccc1-c1ccc(C#N)cc1 [PT-150, N-(4′-cyano-2-methylbiphenyl-4-yl)cyclopropanesulfonamide] | 22.5
CS(=O)(=O)Nc1ccc(-c2ccc(Cl)cc2)c(Cl)c1 [PT-043, N-(2,4′-dichlorobiphenyl-4-yl)methanesulfonamide] | 71.5
CS(=O)(=O)N(Cc1nn[nH]n1)c1ccc(-c2ccc(Cl)c(F)c2)c(Cl)c1 [PT-064, N-(2,4′-dichloro-3′-fluorobiphenyl-4-yl)-N-(2H-tetrazol-5-ylmethyl)methanesulfonamide] | 30.5

Compound | inhibition at 10 µM [%]
CS(=O)(=O)Nc1ccc(-c2cc(F)cc(F)c2)c(Cl)c1 [PT-068, N-(2-chloro-3′,5′-difluorobiphenyl-4-yl)methanesulfonamide] | 42.2
CS(=O)(=O)N(Cc1ccc(-c2nnn[nH]2)cc1)c1ccc(-c2ccc(Oc3ccccc3)cc2)c(Cl)c1 [PT-135, N-(4-(1H-tetrazol-5-yl)benzyl)-N-(2-chloro-4′-phenoxybiphenyl-4-yl)methanesulfonamide] | 9.7
Cc1cc(N(Cc2ccc(C(=O)O)cc2)S(C)(=O)=O)ccc1-c1ccc(OC(C)C)cc1 [PT-146, 4-((N-(4′-isopropoxy-2-methylbiphenyl-4-yl)methylsulfonamido)methyl)benzoic acid] | 3.65
Cc1cc(-c2ccc(Oc3ccccc3)cc2)ccc1NS(C)(=O)=O [PT-042, N-(3-methyl-4′-phenoxybiphenyl-4-yl)methanesulfonamide] | 25.5
Cc1cc(NS(C)(=O)=O)ccc1-c1ccc(F)c(Cl)c1 [PT-039, N-(3′-chloro-4′-fluoro-2-methylbiphenyl-4-yl)methanesulfonamide] | 62.9
CS(=O)(=O)Nc1ccc(-c2ccccc2F)c(Cl)c1 [PT-035, N-(2-chloro-2′-fluorobiphenyl-4-yl)methanesulfonamide] | 48.2
COC(=O)c1cc(-c2ccc(Oc3ccccc3)cc2)ccc1NS(=O)(=O)C1CC1 [PT-116, methyl 4-[(cyclopropylsulfonyl)amino]-4′-phenoxybiphenyl-3-carboxylate] | 11.2
Cc1cc(NS(C)(=O)=O)ccc1-c1ccc(OC(C)C)cc1 [PT-144, N-(4′-isopropoxy-2-methylbiphenyl-4-yl)methanesulfonamide] | 44.7
CS(=O)(=O)Nc1ccc(-c2ccc(OC(F)(F)F)cc2)cc1 [PT-086, N-[4′-(trifluoromethoxy)biphenyl-4-yl]methanesulfonamide] | 9.4
CS(=O)(=O)Nc1ccc(-c2ccc(OC(F)(F)F)cc2)cc1OC(F)(F)F [PT-099, N-[3,4′-bis(trifluoromethoxy)biphenyl-4-yl]methanesulfonamide] | 8.9
CS(=O)(=O)N(c1ccc(-c2ccc(Oc3ccccc3)cc2)cc1Cl)C1CCC[C@@H]1O (stereo partly drawn) [PT-066, N-(3-chloro-4′-phenoxybiphenyl-4-yl)-N-[(2S)-2-hydroxycyclopentyl]methanesulfonamide] | 33.8
CC(C)(C)OC(=O)CN(c1ccc(-c2ccc(C(F)(F)F)cc2)c(Cl)c1)S(C)(=O)=O [PT-128, tert-butyl 2-(N-(2-chloro-4′-(trifluoromethyl)biphenyl-4-yl)methylsulfonamido)acetate] | 25.7
CS(=O)(=O)Nc1ccc(-c2ccc(F)c(C(F)(F)F)c2)c(Cl)c1 [PT-069, N-[2-chloro-4′-fluoro-3′-(trifluoromethyl)biphenyl-4-yl]methanesulfonamide] | 63
CS(=O)(=O)Nc1ccc(-c2ccc(Oc3ccccc3)cc2)c(N)c1 [PT-163, N-(2-amino-4′-phenoxybiphenyl-4-yl)methanesulfonamide] | 54.7
COC(=O)c1cc(-c2ccc(Oc3ccccc3)cc2)ccc1NS(C)(=O)=O [PT-118, methyl 4-[(methylsulfonyl)amino]-4′-phenoxybiphenyl-3-carboxylate] | 40.8
Cc1cc(NS(C)(=O)=O)ccc1-c1ccc(F)cc1 [PT-056, N-(4′-fluoro-2-methylbiphenyl-4-yl)methanesulfonamide] | 40.8
Cc1cc(N(Cc2cccnc2)S(C)(=O)=O)ccc1-c1cccc(OC(F)(F)F)c1 [PT-073, N-[2-methyl-3′-(trifluoromethoxy)biphenyl-4-yl]-N-(pyridin-3-ylmethyl)methanesulfonamide] | 64.4
